The record followed here is patent US7662862B2, “5-HT7 receptor antagonists” (Laboratorios Del Dr. Esteve, S.A., priority 2004, dated 2010).

The assay concerns the target Cloned Human Serotonin Receptor, Subtype 7 (h5HT7) (Homo sapiens, UniProt P34969). Put plainly: Radioligand binding assay, [125I]LSD, cloned human 5-HT7 receptor expressed in CHO cells (Flashplate). Particulars: radioligand [125I]LSD 0.82 nM, 240 min at room temperature, triplicate, read-out: 5-HT7 IC-50. The method, then: Biological Assays Radioligand Binding
Radioligand binding assays were performed using the Cloned Human Serotonin Receptor, Subtype 7 (h5HT7), expressed in CHO cells, coated on Flashplate (Basic FlashPlate Cat.: SMP200) from PerkinElmer (Cat.: 6120512). The protocol assay was essentially the recommended protocol in the Technical Data Sheet by PerkinEmer Life and Analytical Sciences. The Mass membrane protein/well was typically 12 μg and the Receptor/well was about 9-10 fmoles. The Flashplate were let equilibrate at room temperature for one hour before the addition of the components of the assay mixture. The binding buffer was: 50 mM Tris-HCl, pH 7.4, containing 10 mM MgCl2, 0.5 mM EDTA and 0.5% BSA. The radioligand was [^125I]LSD at a final concentration of 0.82 nM. Nonspecific binding was determined with 50 μM of Clozapine. The assay volume was 25 μl. TopSeal-A were applied onto Flashplate microplates and they were incubated at room temperature for 240 minutes in darkness. The radioactivity were quantified by liquid scintillation spectrophotometry (Wallac 1450 Microbeta Trilux) with a count delay of 4 minutes prior to counting and a counting time of 30 seconds per well. Competition binding data were analyzed by using the LIGAND program (Munson and Rodbard, LIGAND: A versatile, computerized approach for characterization of ligand-binding systems. Anal. Biochem. 107: 220-239, 1980) and assays were performed in triplicate determinations for each point.

Structures can show the parent of a compound that is named as a salt.

Cloned Human Serotonin Receptor, Subtype 7 (h5HT7), sequence (P34969 whole entry): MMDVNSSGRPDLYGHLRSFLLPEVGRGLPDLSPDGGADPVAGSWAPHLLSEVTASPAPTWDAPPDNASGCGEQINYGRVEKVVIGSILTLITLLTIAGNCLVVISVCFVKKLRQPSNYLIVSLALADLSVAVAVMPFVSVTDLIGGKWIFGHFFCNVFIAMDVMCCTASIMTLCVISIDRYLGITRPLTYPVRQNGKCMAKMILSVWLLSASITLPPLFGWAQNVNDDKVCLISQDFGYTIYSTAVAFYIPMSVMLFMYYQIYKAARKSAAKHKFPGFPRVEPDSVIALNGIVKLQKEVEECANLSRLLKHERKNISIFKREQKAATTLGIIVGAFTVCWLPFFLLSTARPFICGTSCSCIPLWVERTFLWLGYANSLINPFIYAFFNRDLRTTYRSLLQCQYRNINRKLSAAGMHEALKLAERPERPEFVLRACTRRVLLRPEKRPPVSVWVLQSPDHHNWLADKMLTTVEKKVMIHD

Take `CCN(CCCN1CCc2cc(OC)c(OC)c3c2C1CC3)S(=O)(=O)c1cc(Cl)ccc1Cl` (centres unmarked) [Compound 80, 2,5-Dichloro-N-[3-(7,8-dimethoxy-2,2a,4,5-tetrahydro-1H-3-aza-acenaphthylen-3-yl)-propyl]-N-ethyl-benzene sulfonamide hydrochloride]: the IC50 was determined as 6.2 nM.
Turning to `CCN(CCCN1CCc2cccc3c2C1CC3)S(=O)(=O)c1cccc2ccccc12` (centres unmarked) [Compound 87, Naphthalene-1-sulfonic acid ethyl-[3-(2,2a,4,5-tetrahydro-1H-3-aza-acenaphthylen-3-yl)-propyl]-amide hydrochloride], the IC50 was 20.3 nM.
Consider `CCN(CCCN1CCc2cccc3c2C1CC3)S(=O)(=O)c1cccc(C)c1` (centres unmarked) [Compound 88, N-Ethyl-3-methyl-N-[3-(2,2a,4,5-tetrahydro-1H-3-aza-acenaphthylen-3-yl)-propyl]-benzenesulfonamide hydrochloride], for which the IC50 amounted to 4.5 nM.
Then `CCN(CCCN1CCc2cccc3c2C1CC3)S(=O)(=O)c1ccc(C)cc1` (centres unmarked) [Compound 89, N-Ethyl-4-methyl-N-[3-(2,2a,4,5-tetrahydro-1H-3-aza-acenaphthylen-3-yl)-propyl]-benzenesulfonamide hydrochloride], with 6.7 nM.
Take `CCN(CCCN1CCc2cc(OC)c(OC)c3c2C1CC3)S(=O)(=O)c1ccccc1Cl` (centres unmarked) [Compound 111, 2-Chloro-N-[3-(7,8-dimethoxy-2,2a,4,5-tetrahydro-1H-3-aza-acenaphthylen-3-yl)-propyl]-N-ethyl-benzenesulfonamide hydrochloride]: the IC50 stood at 8 nM.
